Measurements from patent US20250230138A1, “COMPOUNDS HAVING A T-STRUCTURE FORMED BY AT LEAST FOUR CYCLES FOR USE IN THE TREATMENT OF CANCER AND OTHER INDICATIONS” (TheRas, Inc., priority 2022, published 2025).
Like-named read-outs stand apart in the source and are kept apart here.

How the values were obtained:
[1] = tested on: pAKT in BT474 cells; assay: Cell-based pAKT HTRF assay in BT474 cells; conditions: BT474 cells, 4 hr incubation, read-out: pAKT inhibition IC50 in BT474 cells
Method in brief: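 Compound titration: 3 μM downward in 3-fold steps, nine points, 4 hr on cells. Detection: lysis, then d2 plus Eu Cryptate antibody mix, room-temperature incubation of 4–24 h, and time-resolved fluorescence read at 615 nm.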

[2] = molecular target: Cys242 in human PIK3CA (157-299) (Homo sapiens (Human), UniProt P42336); assay: Covalent modification assay using MALDI-TOF MS; format: biochemical; conditions: 4 h reaction time point
Method in brief: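 PIK3CA (157-299) at 3.33 μM or 1 μM in 20 mM HEPES, 150 mM NaCl, 2 mM MgCl2, pH 7.3 was incubated with compound (from 10 mM DMSO stocks) in the dark at room temperature for 15 min, 30 min, 2 h or 4 h. Linear-mode MALDI-TOF peak heights gave percent modification.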

[3] = Homo sapiens, BT-474, Compounds 10-999
[4] = 3.33 μM protein target, 1:7.5 protein to compound ratio (compounds 1-852)
[5] = 1 μM protein target, 1:5 protein to compound ratio (compounds 853-1279)

Cys242 in human PIK3CA (157-299), sequence (P42336 157-299): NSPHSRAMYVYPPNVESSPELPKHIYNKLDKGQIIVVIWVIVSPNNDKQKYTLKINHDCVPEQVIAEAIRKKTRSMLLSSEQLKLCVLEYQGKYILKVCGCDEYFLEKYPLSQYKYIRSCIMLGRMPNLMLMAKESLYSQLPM

Row | Compound | IC50 [1, 3] [nM] | IC50 ([1]; Compounds 10-999) [nM] | IC50 ([1]; Compounds 1000-1279) [nM] | % of modification [2, 4] | % of modification [2, 5]
1 | C=CC(=O)N1CCn2nc(-c3nc(-c4cnn(C)c(=O)c4)c4ccsc4c3-c3c(F)cc(F)cc3OCCOC)cc2C1C (stereo not shown) [Compound 984] |  | < 100 |  |  | A (percent of modification of PIK3CA protein ≥75%)
2 | C=CC(=O)N1CCn2nc(-c3nc(-c4cnn(C(F)F)c4)c4ccsc4c3-c3ccc(F)cc3OCCOC)cc2C1 [Compound 245] |  | < 100 |  | A (percent of modification of PIK3CA protein ≥75%) | 
3 | C=CC(=O)N1CCc2nc(-c3nc(-c4ccc5c(c4)CCNC5)c4ccsc4c3-c3ccc(F)cc3OC(C)C)sc2C1 [Compound 155] |  | < 100 |  | A (percent of modification of PIK3CA protein ≥75%) | 
4 | C=CC(=O)N1CCc2nc(-c3nc(-c4ccc5c(c4)CCNC5)c4ccsc4c3-c3ccc(F)cc3OCC3CCNC(=O)C3)sc2C1 (stereo not shown) [Compound 182] |  | < 100 |  | A (percent of modification of PIK3CA protein ≥75%) | 
5 | C=CC(=O)N1CCc2ncc(-c3nc(-c4ccc5c(c4)C(O)CC5)c4ccsc4c3-c3c(F)cc(F)cc3OC(C)C)cc2C1 (stereo not shown) [Compound 384] |  | < 100 |  | A (percent of modification of PIK3CA protein ≥75%) | 
6 | C=CC(=O)N1CCc2ncc(-c3nc(-c4cccc(C#N)c4)c4ccsc4c3-c3c(F)cc(F)cc3OCCOC)cc2C1 [Compound 380] |  | < 100 |  | A (percent of modification of PIK3CA protein ≥75%) | 
7 | C=CC(=O)N1CCn2nc(-c3nc(-c4ccc5nncn5c4)c4ccsc4c3-c3c(F)cc(F)cc3OCCO)cc2[C@H]1C [Compound 892] |  | < 100 |  |  | A (percent of modification of PIK3CA protein ≥75%)
8 | C=CC(=O)N1CCc2nc(-c3nc(-c4ccc5c(c4)CN(C)CC5(F)F)c4ccsc4c3-c3c(F)cc(F)cc3OCCOC)sc2C1 [Compound 1276] |  |  | 100 to 1000 |  | A (percent of modification of PIK3CA protein ≥75%)
9 | C=CC(=O)N1CCn2nc(-c3nc(-c4ccnc(N(C)C)c4)c4ccsc4c3-c3c(F)cc(F)cc3OCCO)cc2C1C (stereo not shown) [Compound 960] |  | < 100 |  |  | A (percent of modification of PIK3CA protein ≥75%)
10 | C=CC(=O)N1CCc2nc(-c3nc(-c4ccc(N5CCNCC5)nc4)c4ccsc4c3-c3ccc(F)cc3OCCOC)sc2C1 [Compound 174] |  | < 100 |  | A (percent of modification of PIK3CA protein ≥75%) | 
11 | C=CC(=O)N1CCn2nc(-c3nc(-c4ccc5nn(C)cc5c4)c4ccsc4c3-c3c(F)cc(F)cc3OC[C@@H](C)O)cc2[C@@H]1C [Compound 646] |  | < 100 |  | A (percent of modification of PIK3CA protein ≥75%) | 
12 | C=CC(=O)N1CCn2nc(-c3nc(-c4ccc5ncn(C)c5c4)c4ccsc4c3-c3c(F)cc(F)cc3OCCOC)cc2[C@@H]1C [Compound 702] |  | < 100 |  | A (percent of modification of PIK3CA protein ≥75%) | 
13 | C=CC(=O)N1Cc2cc(-c3nc(-c4cnnc(C)c4)c4ccsc4c3-c3c(F)cc(F)cc3OCCOC)nn2C[C@H]1C [Compound 633] |  | 1000 to 3000 |  | D (percent of modification <25%) | 
14 | C=CC(=O)N1CCc2ncc(-c3nc(-c4ccc5c(c4)CCNC5)c4c(c3-c3ccc(F)cc3OC)CCC4)cc2C1 [Compound 89, 1-[3-[4-(4-fluoro-2-methoxy-phenyl)-1-(1,2,3,4-tetrahydroisoquinolin-6-yl)-6,7-dihydro-5H-cyclopenta[c]pyridin-3-yl]-7,8-dihydro-5H-1,6-naphthyridin-6-yl]prop-2-en-1-one] | 100 to 1000 |  |  | A (percent of modification of PIK3CA protein ≥75%) | 
15 | C=CC(=O)N1CCc2nc(-c3nc(-c4ccc5c(c4)CCNC5)c4c(F)csc4c3-c3ccc(F)cc3OC)sc2C1 [Compound 274, 1-[2-[3-fluoro-7-(4-fluoro-2-methoxy-phenyl)-4-(1,2,3,4-tetrahydroisoquinolin-6-yl)thieno[3,2-c]pyridin-6-yl]-6,7-dihydro-4H-thiazolo[5,4-c]pyridin-5-yl]prop-2-en-1-one] | 100 to 1000 |  |  | A (percent of modification of PIK3CA protein ≥75%) | 
16 | C=CC(=O)N1CCc2nc(-c3nc(-c4ccnc(N)c4)c4ccsc4c3-c3ccc(F)cc3OCCOC)sc2C1 [Compound 141] |  | < 100 |  | A (percent of modification of PIK3CA protein ≥75%) | 
17 | C=CC(=O)N1Cc2cc(-c3nc(-c4ccc5nn(C)cc5c4)c4ccsc4c3-c3c(F)cc(F)cc3OC(C)C)nn2CC1C (stereo not shown) [Compound 530] |  | < 100 |  | A (percent of modification of PIK3CA protein ≥75%) | 

More lines, main results first:

Row | IC50 [1, 3] [nM] | IC50 ([1]; Compounds 10-999) [nM] | IC50 ([1]; Compounds 1000-1279) [nM] | Compound | % of modification [2, 4] | % of modification [2, 5]
18 | < 100 |  |  | C=CC(=O)N1CC(n2cc(-c3nc(-c4ccc5c(c4)CCNC5)c4ccsc4c3-c3ccc(F)cc3OC)cn2)C1 [Compound 82, 1-[3-[4-[7-(4-fluoro-2-methoxy-phenyl)-4-(1,2,3,4-tetrahydroisoquinolin-6-yl)thieno[3,2-c]pyridin-6-yl]pyrazol-1-yl]azetidin-1-yl]prop-2-en-1-one] | A (percent of modification of PIK3CA protein ≥75%) | 
19 |  | < 100 |  | C=CC(=O)N1C[C@H](C)n2nc(-c3nc(-c4cnn(C)c4)c4ccsc4c3-c3c(F)cc(F)cc3OCCOC)cc2[C@H]1C [Compound 583] | A (percent of modification of PIK3CA protein ≥75%) | 
20 |  | < 100 |  | C=CC(=O)N1CCc2ncc(-c3nc(-c4cnn(CC(F)F)c4)c4ccsc4c3-c3c(F)cc(F)cc3OCCOC)cc2C1 [Compound 385] | A (percent of modification of PIK3CA protein ≥75%) | 
21 |  | < 100 |  | C=CC(=O)N1CCn2nc(-c3nc(-c4ccc5c(c4)CCN(C)C5)c4ccsc4c3-c3c(F)cc(F)cc3OCC(C)O)cc2C1C (stereo not shown) [Compound 550] | A (percent of modification of PIK3CA protein ≥75%) | 
22 |  | < 100 |  | C=CC(=O)N1Cc2cc(-c3nc(-c4ccc5c(c4)CCN(C)C5)c4ccsc4c3-c3c(F)cc(F)cc3OCC)nn2CC1C (stereo not shown) [Compound 503] | A (percent of modification of PIK3CA protein ≥75%) | 
23 |  | < 100 |  | C=CC(=O)N1CCn2nc(-c3nc(-c4ccc5c(c4)C(=O)N(C)C5)c4ccsc4c3-c3c(F)cc(F)cc3OCC(C)O)cc2C1C (stereo not shown) [Compound 878] |  | A (percent of modification of PIK3CA protein ≥75%)
24 |  | 100 to 1000 |  | C=CC(=O)N1CCc2nc(-c3nc(-c4cnn(CC(C)(C)N)c4)c4ccsc4c3-c3c(F)cc(F)cc3OC(C)C)sc2C1 [Compound 401] | A (percent of modification of PIK3CA protein ≥75%) | 
25 |  | < 100 |  | C=CC(=O)N1CCn2nc(-c3nc(-c4ccc(=O)n(C)c4)c4ccsc4c3-c3c(F)cc(F)cc3OCCO)cc2C1C (stereo not shown) [Compound 872] |  | A (percent of modification of PIK3CA protein ≥75%)
26 |  | < 100 |  | C=CC(=O)N1CCn2nc(-c3nc(-c4ccnc(N)c4)c4ccsc4c3-c3ccc(F)cc3OC(F)F)nc2C1 [Compound 217] | A (percent of modification of PIK3CA protein ≥75%) | 
27 |  |  | < 100 | C=CC(=O)N1CCn2nc(-c3nc(-c4ccc(C5CN(C)C5)cc4)c4ccsc4c3-c3c(F)cc(F)cc3OCCOC)cc2C1C (stereo not shown) [Compound 1057] |  | A (percent of modification of PIK3CA protein ≥75%)
28 |  | 100 to 1000 |  | C=CC(=O)N1Cc2cc(-c3nc(-c4cnn(C)c4)c4ccsc4c3-c3c(F)cc(F)cc3OCCO)nn2C[C@H]1C [Compound 673] | D (percent of modification <25%) | 
29 |  | 100 to 1000 |  | C=CC(=O)N1CCc2nc(-c3nc(N4CCN(C(C)C)CC4)c4ccsc4c3-c3ccc(F)cc3OCCOC)sc2C1 [Compound 140] | A (percent of modification of PIK3CA protein ≥75%) | 
30 |  | 100 to 1000 |  | C=C(F)C(=O)N1CCn2nc(-c3nc(-c4ccc5c(c4)CCNC5=O)c4ccsc4c3-c3ccc(F)cc3OCC)cc2C1 [Compound 304] | B (50%<percent of modification <75%) | 
31 | < 100 |  |  | C=CC(=O)N1CCn2nc(-c3nc(-c4cnn(C)c4)c4ccsc4c3-c3ccc(F)cc3OC)cc2C1 [Compound 206, 1-[2-[7-(4-fluoro-2-methoxy-phenyl)-4-(1-methylpyrazol-4-yl)thieno[3,2-c]pyridin-6-yl]-6,7-dihydro-4H-pyrazolo[1,5-a]pyrazin-5-yl]prop-2-en-1-one] | A (percent of modification of PIK3CA protein ≥75%) | 
32 |  | 100 to 1000 |  | C=CC(=O)N1CCc2nc(-c3nc(-c4cccc(C(C)(C)O)c4)c4ccsc4c3-c3c(F)cc(F)cc3OCCOC)sc2C1 [Compound 429] | A (percent of modification of PIK3CA protein ≥75%) | 
